Experimental data taken from patent US10167262B2, “Herbicidal substituted 3-arylpyrazoles” (FMC CORPORATION, priority 2014, dated 2019).

Key:
Assay in all cases: Test E pre-/postemergence greenhouse test, plant response rating 0-100
Format in all cases: in vivo
[1] = system: Brazilian crabgrass (Digitaria horizontalis); conditions: Postemergence, scale 0 to 100
From the text: (§1) Seeds of plant species selected from corn (Zea mays), soybean (Glycine max), velvetleaf (Abutilon theophrasti), lambsquarters (Chenopodium album), wild poinsettia (Euphorbia heterophylla), palmer pigweed (Amaranthus palmeri), waterhemp (common waterhemp, Amaranthus rudis), surinam grass (Brachiaria decumbens), large (Lg) crabgrass (Digitaria sanguinalis), Brazilian crabgrass (Digitaria horizontalis), fall panicum (Panicum dichotomiflorum), giant foxtail (Setaria faberii), green foxtail (Setaria viridis), goosegrass (Eleusine indica), johnsongrass (Sorghum halepense), ragweed (common ragweed, Ambrosia elatior), barnyardgrass (Echinochloa crus-galli), sandbur (southern sandbur, Cenchrus echinatus), arrowleaf sida (Sida rhombifolia), Italian ryegrass (Lolium multiflorum), dayflower (Virginia (VA) dayflower, Commelina virginica), field bindweed (Convolvulus arvensis), morningglory (Ipomoea coccinea), nightshade (eastern black nightshade, Solanum ptycanthum), kochia (Kochia scoparia), yellow nutsedge (Cyperus esculentus), smartweed (ladysthumb smartweed, Polygonum persicaria), cocklebur (common cocklebur, Xanthium strumarium), and hairy beggarticks (Bidens pilosa), were planted into a silt loam soil and treated preemergence with test chemicals formulated in a non-phytotoxic solvent mixture which included a surfactant.
(§2) At the same time, plants from these crop and weed species and also waterhemp_RES1, (ALS & Triazine resistant common waterhemp, Amaranthus rudis), and waterhemp_RES2, (ALS & HPPD resistant common waterhemp, Amaranthus rudis) were planted in pots containing Redi-Earth® planting medium (Scotts Company, 14111 Scottslawn Road, Marysville, Ohio 43041) comprising spaghnum peat moss, vermiculite, wetting agent and starter nutrients were treated with postemergence applications of test chemicals formulated in the same manner. Plants ranged in height from 2 to 18 cm for postemergence treatments (1- to 4-leaf stage).
(§3) Treated plants and controls were maintained in a greenhouse for 14 to 21 days, after which time all species were compared to controls and visually evaluated. Plant response ratings, summarized in Table E, are based on a scale of 0 to 100 where 0 is no effect and 100 is complete control. A dash (-) response means no test result.

[2] = system: arrowleaf sida (Sida rhombifolia); conditions: for Plant response rating, Arrowleaf Sida: Postemergence; for Arrowleaf Sida plant response rating: Preemergence
From the text: as §1, §2, §3

[3] = system: barnyardgrass (Echinochloa crus-galli); conditions: scale 0 to 100; for Plant response rating, Barnyardgrass: Postemergence; for Barnyardgrass plant response rating: Preemergence
From the text: as §1, §2, §3

[4] = system: corn (Zea mays); conditions: scale 0 to 100; for Plant response rating, Corn: Postemergence; for Corn plant response rating: Preemergence
From the text: as §1, §2, §3

[5] = system: dayflower (Virginia (VA) dayflower, Commelina virginica); conditions: scale 0 to 100; for Plant response rating, Dayflower, VA: Postemergence
From the text: as §1, §2, §3

[6] = system: fall panicum (Panicum dichotomiflorum); conditions: scale 0 to 100; for Plant response rating, Panicum, Fall: Postemergence; for Panicum, Fall plant response rating: Preemergence
From the text: as §1, §2, §3

[7] = system: field bindweed (Convolvulus arvensis); conditions: scale 0 to 100; for Plant response rating, Field Bindweed: Postemergence; for Field Bindweed plant response rating: Preemergence
From the text: as §1, §2, §3

[8] = system: hairy beggarticks (Bidens pilosa); conditions: scale 0 to 100; for Plant response rating, Beggarticks: Postemergence; for Beggarticks plant response rating: Preemergence
From the text: as §1, §2, §3

[9] = system: palmer pigweed (Amaranthus palmeri); conditions: scale 0 to 100; for Plant response rating, Pigweed, Palmer: Postemergence; for Pigweed, Palmer plant response rating: Preemergence
From the text: as §1, §2, §3

[10] = system: sandbur (southern sandbur, Cenchrus echinatus); conditions: scale 0 to 100; for Plant response rating, Sandbur: Postemergence; for Sandbur plant response rating: Preemergence
From the text: as §1, §2, §3

[11] = system: soybean (Glycine max); conditions: scale 0 to 100; for Plant response rating, Soybean: Postemergence; for Soybean plant response rating: Preemergence
From the text: as §1, §2, §3

[12] = system: waterhemp (common waterhemp, Amaranthus rudis); conditions: scale 0 to 100; for Plant response rating, Waterhemp: Postemergence; for Waterhemp plant response rating: Preemergence
From the text: as §1, §2, §3

Structure (SMILES): O=C(c1ccccc1)c1cn(S(=O)(=O)C(F)(F)F)nc1-c1cc(Cl)cc(Cl)c1 [Compound 2]
- Plant response rating, Crabgrass, Brazil ([1]; 31 g ai/ha): 0
- Plant response rating, Crabgrass, Brazil ([1]; 62 g ai/ha): 0
- Plant response rating, Crabgrass, Brazil ([1]; 125 g ai/ha): 0
- Plant response rating, Crabgrass, Brazil ([1]; 250 g ai/ha): 0
- Plant response rating, Crabgrass, Brazil ([1]; 500 g ai/ha): 0
- Plant response rating, Arrowleaf Sida ([2]; 31 g ai/ha, scale 0 to 100): 95
- Plant response rating, Arrowleaf Sida ([2]; 62 g ai/ha, scale 0 to 100): 95
- Plant response rating, Arrowleaf Sida ([2]; 125 g ai/ha, scale 0 to 100): 95
- Plant response rating, Arrowleaf Sida ([2]; 250 g ai/ha, scale 0 to 100): 95
- Plant response rating, Arrowleaf Sida ([2]; 500 g ai/ha, scale 0 to 100 (0 no effect, 100 complete control)): 98
- Arrowleaf Sida plant response rating ([2]; 31 g ai/ha, scale 0 to 100): 35
- Arrowleaf Sida plant response rating ([2]; 62 g ai/ha, scale 0 to 100): 35
- Arrowleaf Sida plant response rating ([2]; 125 g ai/ha, scale 0 to 100): 50
- Arrowleaf Sida plant response rating ([2]; 250 g ai/ha, scale 0 to 100): 98
- Arrowleaf Sida plant response rating ([2]; 500 g ai/ha, scale 0 to 100): 95
- Plant response rating, Barnyardgrass ([3]; 31 g ai/ha): 0
- Plant response rating, Barnyardgrass ([3]; 62 g ai/ha): 0
- Plant response rating, Barnyardgrass ([3]; 125 g ai/ha): 0
- Plant response rating, Barnyardgrass ([3]; 250 g ai/ha): 0
- Plant response rating, Barnyardgrass ([3]; 500 g ai/ha): 0
- Barnyardgrass plant response rating ([3]; 31 g ai/ha): 0
- Barnyardgrass plant response rating ([3]; 62 g ai/ha): 0
- Barnyardgrass plant response rating ([3]; 125 g ai/ha): 0
- Barnyardgrass plant response rating ([3]; 250 g ai/ha): 0
- Barnyardgrass plant response rating ([3]; 500 g ai/ha): 0
- Plant response rating, Corn ([4]; 31 g ai/ha): 0
- Plant response rating, Corn ([4]; 62 g ai/ha): 0
- Plant response rating, Corn ([4]; 125 g ai/ha): 0
- Plant response rating, Corn ([4]; 250 g ai/ha): 0
- Plant response rating, Corn ([4]; 500 g ai/ha): 0
- Corn plant response rating ([4]; 31 g ai/ha): 0
- Corn plant response rating ([4]; 62 g ai/ha): 0
- Corn plant response rating ([4]; 125 g ai/ha): 0
- Corn plant response rating ([4]; 250 g ai/ha): 0
- Corn plant response rating ([4]; 500 g ai/ha): 0
- Plant response rating, Dayflower, VA ([5]; 31 g ai/ha): 0
- Plant response rating, Dayflower, VA ([5]; 62 g ai/ha): 0
- Plant response rating, Dayflower, VA ([5]; 125 g ai/ha): 0
- Plant response rating, Dayflower, VA ([5]; 250 g ai/ha): 0
- Plant response rating, Dayflower, VA ([5]; 500 g ai/ha): 0
- Dayflower, VA plant response rating ([5]; Preemergence, 62 g ai/ha): 0
- Plant response rating, Panicum, Fall ([6]; 31 g ai/ha): 0
- Plant response rating, Panicum, Fall ([6]; 62 g ai/ha): 0
- Plant response rating, Panicum, Fall ([6]; 125 g ai/ha): 0
- Plant response rating, Panicum, Fall ([6]; 250 g ai/ha): 25
- Plant response rating, Panicum, Fall ([6]; 500 g ai/ha): 40
- Panicum, Fall plant response rating ([6]; 31 g ai/ha): 0
- Panicum, Fall plant response rating ([6]; 62 g ai/ha): 0
- Panicum, Fall plant response rating ([6]; 125 g ai/ha): 0
- Panicum, Fall plant response rating ([6]; 250 g ai/ha): 0
- Panicum, Fall plant response rating ([6]; 500 g ai/ha): 0
- Plant response rating, Field Bindweed ([7]; 31 g ai/ha): 0
- Plant response rating, Field Bindweed ([7]; 62 g ai/ha): 0
- Plant response rating, Field Bindweed ([7]; 125 g ai/ha): 0
- Plant response rating, Field Bindweed ([7]; 250 g ai/ha): 0
- Plant response rating, Field Bindweed ([7]; 500 g ai/ha): 0
- Field Bindweed plant response rating ([7]; 31 g ai/ha): 0
- Field Bindweed plant response rating ([7]; 62 g ai/ha): 0
- Field Bindweed plant response rating ([7]; 125 g ai/ha): 0
- Field Bindweed plant response rating ([7]; 250 g ai/ha): 0
- Field Bindweed plant response rating ([7]; 500 g ai/ha): 0
- Plant response rating, Beggarticks ([8]; 31 g ai/ha): 80
- Plant response rating, Beggarticks ([8]; 62 g ai/ha): 90
- Plant response rating, Beggarticks ([8]; 125 g ai/ha): 100
- Plant response rating, Beggarticks ([8]; 250 g ai/ha): 100
- Plant response rating, Beggarticks ([8]; 500 g ai/ha): 100
- Beggarticks plant response rating ([8]; 31 g ai/ha): 0
- Beggarticks plant response rating ([8]; 62 g ai/ha): 0
- Beggarticks plant response rating ([8]; 125 g ai/ha): 0
- Beggarticks plant response rating ([8]; 250 g ai/ha): 0
- Beggarticks plant response rating ([8]; 500 g ai/ha): 0
- Plant response rating, Pigweed, Palmer ([9]; 31 g ai/ha): 65
- Plant response rating, Pigweed, Palmer ([9]; 62 g ai/ha): 85
- Plant response rating, Pigweed, Palmer ([9]; 125 g ai/ha): 90
- Plant response rating, Pigweed, Palmer ([9]; 250 g ai/ha): 95
- Plant response rating, Pigweed, Palmer ([9]; 500 g ai/ha): 100
- Pigweed, Palmer plant response rating ([9]; 31 g ai/ha): 0
- Pigweed, Palmer plant response rating ([9]; 62 g ai/ha): 0
- Pigweed, Palmer plant response rating ([9]; 125 g ai/ha): 0
- Pigweed, Palmer plant response rating ([9]; 250 g ai/ha): 0
- Pigweed, Palmer plant response rating ([9]; 500 g ai/ha): 100
- Plant response rating, Sandbur ([10]; 31 g ai/ha): 0
- Plant response rating, Sandbur ([10]; 62 g ai/ha): 0
- Plant response rating, Sandbur ([10]; 125 g ai/ha): 0
- Plant response rating, Sandbur ([10]; 250 g ai/ha): 0
- Plant response rating, Sandbur ([10]; 500 g ai/ha): 0
- Sandbur plant response rating ([10]; 31 g ai/ha): 0
- Sandbur plant response rating ([10]; 62 g ai/ha): 0
- Sandbur plant response rating ([10]; 125 g ai/ha): 0
- Sandbur plant response rating ([10]; 250 g ai/ha): 0
- Sandbur plant response rating ([10]; 500 g ai/ha): 0
- Plant response rating, Soybean ([11]; 31 g ai/ha): 0
- Plant response rating, Soybean ([11]; 62 g ai/ha): 0
- Plant response rating, Soybean ([11]; 125 g ai/ha): 0
- Plant response rating, Soybean ([11]; 250 g ai/ha): 0
- Plant response rating, Soybean ([11]; 500 g ai/ha): 0
- Soybean plant response rating ([11]; 125 g ai/ha): 0
- Soybean plant response rating ([11]; 250 g ai/ha): 0
- Soybean plant response rating ([11]; 500 g ai/ha): 0
- Plant response rating, Waterhemp ([12]; 31 g ai/ha): 90
- Plant response rating, Waterhemp ([12]; 62 g ai/ha): 80
- Plant response rating, Waterhemp ([12]; 125 g ai/ha): 98
- Plant response rating, Waterhemp ([12]; 250 g ai/ha): 98
- Plant response rating, Waterhemp ([12]; 500 g ai/ha): 100
- Waterhemp plant response rating ([12]; 31 g ai/ha): 0
- Waterhemp plant response rating ([12]; 125 g ai/ha): 30
- Waterhemp plant response rating ([12]; 250 g ai/ha): 65
- Waterhemp plant response rating ([12]; 500 g ai/ha): 100
